{"source": "patent US20150011471A1", "about": "“REGENERATION OF ISLET BETA CELLS BY HSP60 DERIVED PEPTIDES” (Yeda Research and Development Co. Ltd., priority 2012, published 2015)", "key": {"advanced T1D in NOD mice": {"system": "advanced T1D in NOD mice", "from_the_text": "Female non-obese diabetic (NOD) mice, which spontaneously develop autoimmune diabetes that mimics human T1D, are used to test the ability of the Hsp60 peptides and peptide analogs to induce regeneration of pancreatic beta cells. The NOD model is described, for example in Elias and Cohen (Lancet 1994, 343, 704-706). Female NOD mice raised under specific pathogen free (SPF) conditions develop insulitis around 4 weeks of age. […] In addition, the actual appearance of new beta cells, detected by increased C-peptide levels is measured in the revised protocol and not just preservation of initial C-peptide levels as in the original protocol.\nGroups of 7 weeks old NOD/ShiLtJ mice (Jackson Number 001976, 10 mice per group) were used. Fasting blood glucose was monitored three times per week during all the treatment period, using methods known in the art. After about 12-20 weeks, when blood glucose reaches a level of […] the mice are treated with insulin in order to keep them alive and divided randomly between the following group treatments: • 1. no treatment; • 2. […]® only, once a week; • 3.\nFasting glucose was measured Hemoglobin A1C and C-peptide levels were measured at the end of treatment, up to six months, depending on the conditions of the control and treated animals.\nHistology was performed to detect and count beta cells in pancreatic islets and to observe islet infiltrates. Histology was performed by staining for insulin and detection of appearance of beta cells, as described for example in Lumelsky et al, Science 2001, 292, 1389-1394."}, "NOD mice": {"system": "NOD mice", "conditions": "subcutaneous administration; cited from earlier work"}}, "note": "Read-outs that look alike come from different tables or passages of the source. Where no end group is shown, it is not given here.", "data": [{"substance": "VLGGGVALLRVIPALDSLTPANED [DiaPep277]", "values": [{"measurement": "Islets per whole section", "setting": "advanced T1D in NOD mice; 100 μg in INTRALIPID, SC, 1 injection/week", "value": 3}, {"measurement": "Islets per whole section", "setting": "advanced T1D in NOD mice; 100 μg in PBS, IP, 3 injections/week", "value": 2}, {"measurement": "Islets per whole section", "setting": "advanced T1D in NOD mice; 200 μg in INTRALIPID, SC, 1 injection/week", "value": 1}, {"measurement": "Lymphocyte infiltrates compared to control mice treated with placebo", "setting": "advanced T1D in NOD mice; treated mice overall, Table 1", "value": "less lymphocyte infiltrates"}, {"measurement": "Number of beta islets compared to control mice treated with placebo", "setting": "advanced T1D in NOD mice; treated mice overall, Table 1", "value": "increased number of beta islets"}]}, {"substance": "p277: specific peptide of human Hsp60, one of the immunodominant epitopes in autoimmune diabetes; native cysteines at positions 6 and 11 (VLGGGCALLRCIPALDSLTPANED; UniProt P10809 437-460, looked up, fragment)", "values": [{"measurement": "Development of diabetes in NOD mice", "setting": "NOD mice", "value": "prevented the development of diabetes"}, {"measurement": "T-cell reactivity to beta cell antigens", "setting": "NOD mice", "value": "down-regulated"}]}]}
